#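 How tested: cells in 96-well plates exposed to compound for 48 hours at five concentrations. GI50: concentration for 50% inhibition of growth.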 The source made the active and inactive calls. Cut-off read from the data, not from the text of the source: active = GI50 up to about 1.1 µM and inactive = higher.
# What was measured:
# Assay in all cases: DTP human tumour cell line panel, 48 h
# ACHN = test system: ACHN
# CAKI-1 = test system: CAKI-1
# CCRF-CEM = test system: CCRF-CEM
# COLO 205 = test system: COLO 205
# DU-145 = test system: DU-145
# HCC 2998 = test system: HCC 2998
# HOP-62 = test system: HOP-62
# HOP-92 = test system: HOP-92
# KM12 = test system: KM12
# NCI-H460 = test system: NCI-H460
# OVCAR-5 = test system: OVCAR-5
# RPMI-8226 = test system: RPMI-8226
# SK-MEL-2 = test system: SK-MEL-2
# SK-OV-3 = test system: SK-OV-3
# SN12C = test system: SN12C
# SNB-19 = test system: SNB-19
# SNB-75 = test system: SNB-75
# T47D = test system: T47D
# UACC-62 = test system: UACC-62
# UO-31 = test system: UO-31
Structure (SMILES),GI50 (ACHN),GI50 (CAKI-1),GI50 (CCRF-CEM),GI50 (COLO 205),GI50 (DU-145),GI50 (HCC 2998),GI50 (HOP-62),GI50 (HOP-92),GI50 (KM12),GI50 (NCI-H460),GI50 (OVCAR-5),GI50 (RPMI-8226),GI50 (SK-MEL-2),GI50 (SK-OV-3),GI50 (SN12C),GI50 (SNB-19),GI50 (SNB-75),GI50 (T47D),GI50 (UACC-62),GI50 (UO-31)
N=C1OC(CN2CCN(c3ccccc3)CC2)CN1C(=S)Nc1ccccc1 (stereo not given),66.5 µM (inactive),95.5 µM (inactive),37.1 µM (inactive),> 100 µM (inactive),> 100 µM (inactive),> 100 µM (inactive),45.5 µM (inactive),21.9 µM (inactive),39.2 µM (inactive),63.1 µM (inactive),97.5 µM (inactive),54 µM (inactive),59.2 µM (inactive),> 100 µM (inactive),> 100 µM (inactive),96.4 µM (inactive),31 µM (inactive),35.6 µM (inactive),48.8 µM (inactive),37.2 µM (inactive)
COc1ccc2[nH]c(C(=O)N3CC(CCl)c4ccc(N)cc43)cc2c1 (stereo not given),0.0728 µM (active),0.0877 µM (active),0.17 µM (active),0.2 µM (active),0.0551 µM (active),0.14 µM (active),0.327 µM (active),0.634 µM (active),0.156 µM (active),0.0867 µM (active),0.316 µM (active),0.361 µM (active),0.199 µM (active),0.349 µM (active),0.347 µM (active),0.586 µM (active),0.178 µM (active),0.455 µM (active),0.141 µM (active),0.145 µM (active)
CCN(CC)c1ccc(/C=C/C=C2C(=O)NC(=S)NC2=O)cc1,> 100 µM (inactive),> 100 µM (inactive),2.81 µM (inactive),> 100 µM (inactive),20.9 µM (inactive),27.2 µM (inactive),15.4 µM (inactive),77.8 µM (inactive),38 µM (inactive),> 100 µM (inactive),> 100 µM (inactive),> 100 µM (inactive),> 68.9 µM (inactive),> 100 µM (inactive),29.9 µM (inactive),43.7 µM (inactive),28.9 µM (inactive),> 100 µM (inactive),15.1 µM (inactive),> 71.8 µM (inactive)
N#C/C(C(=O)Nc1ccccc1)=C(/N)N1CCCCC1,> 100 µM (inactive),> 100 µM (inactive),> 100 µM (inactive),> 100 µM (inactive),> 100 µM (inactive),> 100 µM (inactive),> 100 µM (inactive),> 100 µM (inactive),> 100 µM (inactive),> 100 µM (inactive),> 100 µM (inactive),> 100 µM (inactive),> 100 µM (inactive),> 100 µM (inactive),> 100 µM (inactive),> 100 µM (inactive),> 100 µM (inactive),> 100 µM (inactive),95.7 µM (inactive),67.3 µM (inactive)
CC(=O)n1nc(-c2ccccc2)n(/N=C/c2ccc([N+](=O)[O-])o2)c1=O,8.38 µM (inactive),9.46 µM (inactive),1.6 µM (inactive),7.36 µM (inactive),7.91 µM (inactive),4.53 µM (inactive),4.94 µM (inactive),9.86 µM (inactive),16.4 µM (inactive),7.06 µM (inactive),1.47 µM (inactive),10 µM (inactive),6.97 µM (inactive),16.6 µM (inactive),2.13 µM (inactive),16.3 µM (inactive),10.2 µM (inactive),19.9 µM (inactive),10.4 µM (inactive),1.77 µM (inactive)
CCCCCC(=O)OC[n+]1cccc(-c2c(COC(=O)NC(C)C)c(COC(=O)NC(C)C)c3n2CCC3)c1,23.1 µM (inactive),10.5 µM (inactive),6.58 µM (inactive),62.5 µM (inactive),35.4 µM (inactive),> 100 µM (inactive),44.1 µM (inactive),27.4 µM (inactive),> 100 µM (inactive),16.6 µM (inactive),> 63.5 µM (inactive),32.7 µM (inactive),26.7 µM (inactive),> 57.3 µM (inactive),30.6 µM (inactive),74.3 µM (inactive),33.7 µM (inactive),> 61.8 µM (inactive),23.4 µM (inactive),33.4 µM (inactive)
CCCCCCCCC[n+]1cccc(C2C(C(=O)OCC)=C(C)NC(C)=C2C(=O)OCC)c1,14.6 µM (inactive),13.6 µM (inactive),2.11 µM (inactive),2.56 µM (inactive),11.6 µM (inactive),6.01 µM (inactive),13 µM (inactive),1.95 µM (inactive),1.98 µM (inactive),5.7 µM (inactive),10.7 µM (inactive),1.54 µM (inactive),1.65 µM (inactive),11.3 µM (inactive),4.67 µM (inactive),3.45 µM (inactive),3.67 µM (inactive),5.04 µM (inactive),1.54 µM (inactive),16.2 µM (inactive)
COc1ccc(C)cc1NC(=S)N/N=C/c1ccco1,> 100 µM (inactive),55.2 µM (inactive),29 µM (inactive),21.8 µM (inactive),> 100 µM (inactive),36.5 µM (inactive),48.3 µM (inactive),64.6 µM (inactive),18.9 µM (inactive),34.1 µM (inactive),> 100 µM (inactive),21.4 µM (inactive),16.6 µM (inactive),> 100 µM (inactive),45.3 µM (inactive),99.3 µM (inactive),39.9 µM (inactive),25.4 µM (inactive),46.8 µM (inactive),79.3 µM (inactive)
CCOC(=O)C(Cc1cc(OC)c(CC(C(=O)OCC)C(=O)OCC)cc1OC)C(=O)OCC,> 100 µM (inactive),> 100 µM (inactive),> 100 µM (inactive),> 100 µM (inactive),> 100 µM (inactive),> 100 µM (inactive),> 59.3 µM (inactive),26.9 µM (inactive),> 100 µM (inactive),> 100 µM (inactive),> 100 µM (inactive),> 100 µM (inactive),> 100 µM (inactive),> 93.8 µM (inactive),> 100 µM (inactive),> 68.5 µM (inactive),28.6 µM (inactive),> 100 µM (inactive),> 100 µM (inactive),44 µM (inactive)
C=CCC1(O)c2ccccc2C(=O)c2c(O)ccc(O)c21 (stereo not given),13.7 µM (inactive),15.5 µM (inactive),11.6 µM (inactive),13.3 µM (inactive),9.95 µM (inactive),3.94 µM (inactive),12.4 µM (inactive),12.9 µM (inactive),3.94 µM (inactive),3.52 µM (inactive),17.2 µM (inactive),> 23.8 µM (inactive),2.68 µM (inactive),10.4 µM (inactive),11.6 µM (inactive),6.5 µM (inactive),3.82 µM (inactive),7.74 µM (inactive),4.01 µM (inactive),16.8 µM (inactive)
CCC(=O)NCCc1c[nH]c2ccc(OC)cc12,> 100 µM (inactive),> 100 µM (inactive),> 100 µM (inactive),> 100 µM (inactive),> 100 µM (inactive),> 100 µM (inactive),> 100 µM (inactive),> 100 µM (inactive),> 100 µM (inactive),> 100 µM (inactive),> 100 µM (inactive),> 100 µM (inactive),> 100 µM (inactive),> 100 µM (inactive),> 100 µM (inactive),> 100 µM (inactive),> 100 µM (inactive),> 100 µM (inactive),> 100 µM (inactive),> 100 µM (inactive)
CCNC12CCC(C1)C(C)(C)C2=O (stereo not given),> 100 µM (inactive),> 100 µM (inactive),> 100 µM (inactive),> 100 µM (inactive),> 100 µM (inactive),> 100 µM (inactive),> 100 µM (inactive),> 100 µM (inactive),> 100 µM (inactive),> 100 µM (inactive),> 100 µM (inactive),> 100 µM (inactive),> 100 µM (inactive),> 100 µM (inactive),> 100 µM (inactive),> 100 µM (inactive),> 100 µM (inactive),> 100 µM (inactive),> 100 µM (inactive),> 100 µM (inactive)
C=C1C(=O)C23CC1C[C@H](OC(C)=O)[C@H]2C1(C)C(OC(C)=O)C[C@H](O)C(C)(C)[C@H]1C(=O)[C@@H]3OC(C)=O (stereo not given in full),4.98 µM (inactive),2.86 µM (inactive),1.41 µM (inactive),2.17 µM (inactive),12.9 µM (inactive),19.2 µM (inactive),25.2 µM (inactive),0.248 µM (active),10.9 µM (inactive),17.5 µM (inactive),9.51 µM (inactive),1.33 µM (inactive),12.3 µM (inactive),18.1 µM (inactive),4.76 µM (inactive),18.5 µM (inactive),18.4 µM (inactive),2.72 µM (inactive),4.86 µM (inactive),4.93 µM (inactive)
C=C1C(=O)OC2CC(C)C(C(O)CC(C)O)=CCC12 (stereo not given),4.39 µM (inactive),4.3 µM (inactive),1.71 µM (inactive),10.5 µM (inactive),14.2 µM (inactive),18 µM (inactive),26.2 µM (inactive),12 µM (inactive),18.6 µM (inactive),18.9 µM (inactive),15 µM (inactive),6.67 µM (inactive),16.3 µM (inactive),36.7 µM (inactive),11.4 µM (inactive),28.4 µM (inactive),18.3 µM (inactive),7.08 µM (inactive),16.6 µM (inactive),16.2 µM (inactive)

# Source: ChEMBL document CHEMBL1201862, “PubChem BioAssay data set” (2004)
